Test results reported in patent US20090325964A1, “Piperazine Metabotropic Glutamate Receptor 5 (MGLUR5) Negative Allosteric Modulators For Anxiety/Depression” (Wyeth, priority 2008, published 2009).

Tests used:
rat mGluR5 receptor = target: T1, rat mGluR5 receptor (Rattus norvegicus, UniProt P31424); test: [3H]-MPEP displacement binding assay, HEK-293 cell membranes expressing rat mGluR5; conditions: [3H]-MPEP displacement, rat mGluR5; read-out: Median Ki
T1 construct: expressed in transfected cells; host or cells: HEK-293
T1 sequence (P31424 21-1203): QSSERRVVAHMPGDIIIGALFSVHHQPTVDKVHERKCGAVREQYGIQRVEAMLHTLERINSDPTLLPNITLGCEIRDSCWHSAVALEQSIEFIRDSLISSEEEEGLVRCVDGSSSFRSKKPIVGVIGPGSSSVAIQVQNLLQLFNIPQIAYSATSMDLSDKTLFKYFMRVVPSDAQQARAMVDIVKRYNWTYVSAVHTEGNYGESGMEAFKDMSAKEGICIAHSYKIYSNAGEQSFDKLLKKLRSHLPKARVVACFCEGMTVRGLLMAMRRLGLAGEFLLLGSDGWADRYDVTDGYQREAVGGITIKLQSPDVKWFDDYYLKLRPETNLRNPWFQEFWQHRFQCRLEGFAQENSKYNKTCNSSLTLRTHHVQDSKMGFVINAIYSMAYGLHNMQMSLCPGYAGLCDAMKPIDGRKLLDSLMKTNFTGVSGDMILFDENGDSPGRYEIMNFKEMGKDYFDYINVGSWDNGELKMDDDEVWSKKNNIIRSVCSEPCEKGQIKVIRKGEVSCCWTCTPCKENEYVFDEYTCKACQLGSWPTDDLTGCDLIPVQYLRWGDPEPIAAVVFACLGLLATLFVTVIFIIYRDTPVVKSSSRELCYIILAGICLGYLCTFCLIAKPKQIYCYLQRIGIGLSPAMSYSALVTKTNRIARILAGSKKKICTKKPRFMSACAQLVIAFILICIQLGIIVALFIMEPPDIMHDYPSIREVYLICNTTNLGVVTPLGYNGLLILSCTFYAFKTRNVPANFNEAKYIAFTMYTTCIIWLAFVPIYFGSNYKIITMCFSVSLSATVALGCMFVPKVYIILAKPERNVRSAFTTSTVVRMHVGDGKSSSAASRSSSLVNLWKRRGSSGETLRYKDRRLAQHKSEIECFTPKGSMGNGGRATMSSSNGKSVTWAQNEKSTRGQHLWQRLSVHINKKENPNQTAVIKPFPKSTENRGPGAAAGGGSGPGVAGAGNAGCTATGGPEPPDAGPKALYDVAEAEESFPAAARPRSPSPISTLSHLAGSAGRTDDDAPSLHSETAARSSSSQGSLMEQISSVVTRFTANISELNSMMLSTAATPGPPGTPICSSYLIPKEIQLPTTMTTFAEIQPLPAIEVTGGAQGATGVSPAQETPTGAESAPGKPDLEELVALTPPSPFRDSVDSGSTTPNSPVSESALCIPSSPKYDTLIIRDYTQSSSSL
Outline: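 Membranes from HEK-293 cells expressing rat mGluR5 (12-25 μg protein), incubated 60 min at room temperature with 4 nM [3H]-MPEP in 50 mM Tris pH 7.5, then filtered. Nonspecific binding defined with 10 μM MPEP.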

mGluR5 = mGluR5 (Rattus norvegicus, UniProt P31424); test: IC50 column under 'Biological Activity' (assay not identified in the shown text; not the binding Ki)
Chain of mGluR5 (P31424 21-1203): as above

| SMILES | Ki (rat mGluR5 receptor) | IC50 (mGluR5) |
| --- | --- | --- |
| COc1ccc(C(=O)N2CCN(Cc3ccc4c(c3)OCO4)CC2)cc1C#Cc1ccccn1 [Compound 259, 1-(1,3-benzodioxol-5-ylmethyl)-4-[4-methoxy-3-(pyridin-2-ylethynyl)benzoyl]piperazine] | 0.038 µM | 0.157 µM |
| COc1ccc(C(=O)N2CCN(c3ncc(F)cn3)CC2)cc1C#Cc1ccccn1 [Compound 298, 5-fluoro-2-{4-[4-methoxy-3-(pyridin-2-ylethynyl)benzoyl]piperazin-1-yl}pyrimidine] | 0.033 µM | 0.102 µM |
| COc1ccc(C(=O)N2CCN(Cc3ccc(Cl)cc3Cl)CC2)cc1C#Cc1ccccn1 [Compound 280, 1-(2,4-dichlorobenzyl)-4-[4-methoxy-3-(pyridin-2-ylethynyl)benzoyl]piperazine] | 0.043 µM | 0.317 µM |
| COc1ccc(C(=O)N2CCN(c3ccc(Cl)c(Cl)c3)CC2)cc1C#Cc1ccccn1 [Compound 218, 1-(3,4-dichlorophenyl)-4-[4-methoxy-3-(pyridin-2-ylethynyl)benzoyl]piperazine] | 0.048 µM | > 1 µM |
| COc1ccc(C(=O)N2CCN(C(=O)c3ccccc3)CC2)cc1C#Cc1ccccn1 [Compound 244, 1-benzoyl-4-[4-methoxy-3-(pyridin-2-ylethynyl)benzoyl]piperazine] | 0.054 µM | 0.237 µM |
| COc1ccc(C(=O)N2CCN(c3ccccc3C)CC2)cc1C#Cc1ccccn1 [Compound 221, 1-[4-methoxy-3-(pyridin-2-ylethynyl)benzoyl]-4-(2-methylphenyl)piperazine] | 0.1 µM | > 1 µM |
| COc1ccc(N2CCN(C(=O)c3ccc(OC)c(C#Cc4ccccn4)c3)CC2)cc1 [Compound 233, 1-(4-methoxyphenyl)-4-[4-methoxy-3-(pyridin-2-ylethynyl)benzoyl]piperazine] | 0.066 µM | > 1 µM |
| COc1ccc(C(=O)N2CCN(c3ncc(C(F)(F)F)cc3Cl)CC2)cc1C#Cc1ccccn1 [Compound 190, 1-[3-chloro-5-(trifluoromethyl)pyridin-2-yl]-4-[4-methoxy-3-(pyridin-2-ylethynyl)benzoyl]piperazine] | 0.413 µM | 0.408 µM |
| COc1ccc(C(=O)N2CCN(S(=O)(=O)c3ccc4c(c3)OCCO4)CC2)cc1C#Cc1ccccn1 [Compound 235, 1-(2,3-dihydro-1,4-benzodioxin-6-ylsulfonyl)-4-[4-methoxy-3-(pyridin-2-ylethynyl)benzoyl]piperazine] | 0.075 µM | > 1 µM |
| COc1ccc(C(=O)N2CCN(c3ncccc3C(F)(F)F)CC2)cc1C#Cc1ccccn1 [Compound 184, 1-[4-methoxy-3-(pyridin-2-ylethynyl)benzoyl]-4-[3-(trifluoromethyl)pyridin-2-yl]piperazine] | 0.078 µM | 0.117 µM |
| COc1ccc(C(=O)N2CCN(c3ccc(F)cc3)CC2)cc1C#Cc1ccccn1 [Compound 231, 1-(4-fluorophenyl)-4-[4-methoxy-3-(pyridin-2-ylethynyl)benzoyl]piperazine] | 0.023 µM | 0.244 µM |
| COc1ccc(C(=O)N2CCN(c3ccncc3)CC2)cc1C#Cc1ccccn1 [Compound 236, 1-[4-methoxy-3-(pyridin-2-ylethynyl)benzoyl]-4-pyridin-4-ylpiperazine] | 0.078 µM | > 1 µM |
| COc1ccc(C(=O)N2CCN(c3cncc(C)n3)CC2)cc1C#Cc1ccccn1 [Compound 204, 2-{4-[4-methoxy-3-(pyridin-2-ylethynyl)benzoyl]piperazin-1-yl}-6-methylpyrazine] | 0.029 µM | 0.132 µM |
| O=C(c1ccc(F)c(C#Cc2ccccn2)c1)N1CCN(c2ccccn2)CC1 [Compound 313, 1-[4-fluoro-3-(pyridin-2-ylethynyl)benzoyl]-4-pyridin-2-ylpiperazine] | 0.023 µM | 0.062 µM |
| COc1ccc(C(=O)N2CCN(c3ncc(Cl)cc3Cl)CC2)cc1C#Cc1ccccn1 [Compound 185, 1-(3,5-dichloropyridin-2-yl)-4-[4-methoxy-3-(pyridin-2-ylethynyl)benzoyl]piperazine] | 0.047 µM | 0.043 µM |
| COc1ccc(C(=O)N2CCN(c3ncc(C#N)c(N)n3)CC2)cc1C#Cc1ccccn1 [Compound 293, 4-Amino-2-(4-(4-methoxy-3-(pyridin-2-ylethynyl)benzoyl)piperazin-1-yl)pyrimidine-5-carbonitrile] | 0.058 µM | > 1 µM |
| O=C(c1ccc(OC(F)(F)F)c(C#Cc2ccccn2)c1)N1CCN(c2cnccn2)CC1 [Compound 335, 2-{4-[3-(pyridin-2-ylethynyl)-4-(trifluoromethoxy)benzoyl]piperazin-1-yl}pyrazine] | 0.176 µM | 0.273 µM |
| COc1ccc(C(=O)N2CCN(c3ccc([N+](=O)[O-])cc3)CC2)cc1C#Cc1ccccn1 [Compound 232, 1-[4-methoxy-3-(pyridin-2-ylethynyl)benzoyl]-4-(4-nitrophenyl)piperazine] | 0.096 µM | > 1 µM |
| Cc1ccc(C(=O)N2CCN(c3ncccn3)CC2)cc1C#Cc1ccccn1 [Compound 309, 2-{4-[4-methyl-3-(pyridin-2-ylethynyl)benzoyl]piperazin-1-yl}pyrimidine] | 0.034 µM | 0.193 µM |
| COc1ccc(C(=O)N2CCN(c3ccc(C)cc3)CC2)cc1C#Cc1ccccn1 [Compound 222, 1-[4-methoxy-3-(pyridin-2-ylethynyl)benzoyl]-4-(4-methylphenyl)piperazine] | 0.074 µM | > 1 µM |
| COc1ccc(C(=O)N2CCN(c3ccc([N+](=O)[O-])cn3)CC2)cc1C#Cc1ccccn1 [Compound 229, 1-[4-methoxy-3-(pyridin-2-ylethynyl)benzoyl]-4-(5-nitropyridin-2-yl)piperazine] | 0.056 µM | > 1 µM |
| CCS(=O)(=O)N1CCN(C(=O)c2ccc(OC)c(C#Cc3ccccn3)c2)CC1 [Compound 245, 1-(ethylsulfonyl)-4-[4-methoxy-3-(pyridin-2-ylethynyl)benzoyl]piperazine] | 0.231 µM | 0.344 µM |
| COc1ccc(C(=O)N2CCN(Cc3ccccc3)C(=O)C2)cc1C#Cc1ccccn1 [Compound 331, 1-Benzyl-4-[4-methoxy-3-(pyridin-2-ylethynyl)benzoyl]piperazin-2-one] | 0.061 µM | 0.051 µM |
| COc1ccc(C(=O)N2CCN(C(=O)c3ccco3)CC2)cc1C#Cc1ccccn1 [Compound 258, 1-(2-furoyl)-4-[4-methoxy-3-(pyridin-2-ylethynyl)benzoyl]piperazine] | 0.041 µM | 0.095 µM |

Stronger by Ki (rat mGluR5 receptor), values ahead:

| Ki (rat mGluR5 receptor) | IC50 (mGluR5) | SMILES |
| --- | --- | --- |
| 0.02 µM | 0.031 µM | CCOc1ccc(C(=O)N2CCN(c3nccc(OC)n3)CC2)cc1C#Cc1ccccn1 [Compound 320, 2-{4-[4-ethoxy-3-(pyridin-2-ylethynyl)benzoyl]piperazin-1-yl}-4-methoxypyrimidine] |
| 0.022 µM | > 1 µM | COc1ccc(C(=O)N2CCN(c3ccnc(SC)n3)CC2)cc1C#Cc1ccccn1 [Compound 296, 4-{4-[4-methoxy-3-(pyridin-2-ylethynyl)benzoyl]piperazin-1-yl}-2-(methylthio)pyrimidine] |
| 0.017 µM | 0.085 µM | COc1ccc(C(=O)N2CCN(c3nccs3)CC2)cc1C#Cc1ccccn1 [Compound 247, 1-[4-methoxy-3-(pyridin-2-ylethynyl)benzoyl]-4-(1,3-thiazol-2-yl)piperazine] |
| 0.004 µM | 0.148 µM | COc1ccc(C(=O)N2CCN(c3cccc(Cl)c3)CC2)cc1C#Cc1ccccn1 [Compound 189, 1-(3-chlorophenyl)-4-[4-methoxy-3-(pyridin-2-ylethynyl)benzoyl]piperazine] |
| 0.017 µM | 0.144 µM | COc1ccc(C(=O)N2CCN(Cc3ccc(Cl)cc3)CC2)cc1C#Cc1ccccn1 [Compound 275, 1-(4-chlorobenzyl)-4-[4-methoxy-3-(pyridin-2-ylethynyl)benzoyl]piperazine] |
| 0.019 µM | 0.031 µM | COc1ccc(C(=O)N2CCN(c3cc(C)ccn3)CC2)cc1C#Cc1ccccn1 [Compound 191, 1-[4-methoxy-3-(pyridin-2-ylethynyl)benzoyl]-4-(4-methylpyridin-2-yl)piperazine] |
| 0.001 µM | 0.016 µM | O=C(c1ccc(OC(F)(F)F)c(C#Cc2ccccn2)c1)N1CCN(c2noc3ccccc23)CC1 [Compound 338, 3-{4-[3-(pyridin-2-ylethynyl)-4-(trifluoromethoxy)benzoyl]piperazin-1-yl}-1,2-benzisoxazole] |
| 0.007 µM | 0.086 µM | COc1ccc(C(=O)N2CCN(c3ccc(Cl)cn3)CC2)cc1C#Cc1ccccn1 [Compound 188, 1-(5-chloropyridin-2-yl)-4-[4-methoxy-3-(pyridin-2-ylethynyl)benzoyl]piperazine] |
| 0.006 µM | 0.025 µM | COc1ccc(C(=O)N2CCN(c3noc4ccccc34)CC2)cc1C#Cc1ccccn1 [Compound 251, 3-{4-[4-methoxy-3-(pyridin-2-ylethynyl)benzoyl]piperazin-1-yl}-1,2-benzisoxazole] |
| 0.004 µM | 0.078 µM | COc1ccc(C(=O)N2CCN(c3nccc(C(F)(F)F)n3)CC2)cc1C#Cc1ccccn1 [Compound 194, 2-{4-[4-methoxy-3-(pyridin-2-ylethynyl)benzoyl]piperazin-1-yl}-4-(trifluoromethyl)pyrimidine] |
| 0.021 µM | 0.18 µM | COc1ccc(C(=O)N2CCN(S(=O)(=O)c3ccc(C)cc3)CC2)cc1C#Cc1ccccn1 [Compound 253, 1-[4-methoxy-3-(pyridin-2-ylethynyl)benzoyl]-4-[(4-methylphenyl)sulfonyl]piperazine] |
| 0.015 µM | 0.081 µM | COc1cccc(N2CCN(C(=O)c3ccc(OC)c(C#Cc4ccccn4)c3)CC2)c1 [Compound 241, 1-(3-methoxyphenyl)-4-[4-methoxy-3-(pyridin-2-ylethynyl)benzoyl]piperazine] |
